Values quoted from earlier work in patent publication US20210198628A1, “BASAL MEDIA FOR GROWING NK-92 CELLS” (NantKwest, Inc., priority 2018, published 2021).

Details: in vivo

CC[C@H](C(=O)N1CCCC[C@H]1C(=O)O[C@H](CCc1ccc(OC)c(OC)c1)c1cccc(OCC(=O)NCCNC(=O)COc2cccc([C@@H](CCc3ccc(OC)c(OC)c3)OC(=O)[C@@H]3CCCCN3C(=O)[C@@H](CC)c3cc(OC)c(OC)c(OC)c3)c2)c1)c1cc(OC)c(OC)c(OC)c1 [AP1903]
tolerability in clinical studies: well tolerated
